{"source": "patent US12077503B2", "about": "“Substituted cyclic amides and their use as herbicides” (FMC CORPORATION, priority 2015, dated 2024)", "assay_type_in_all_cases": "in vivo", "key": {"[1]": {"test_system": "giant foxtail (Setaria faberii)", "test": "Test A preemergence", "conditions": "Setaria faberi, pre-emergence, 240 h, 0 to 100 scale (0 no effect, 100 complete control), read-out: Plant response rating, Foxtail, Giant", "in_short": "(§1)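 Each rating is a visual injury score from 0 to 100 given about 10 d after treatment, judged against untreated controls kept alongside in the greenhouse. In loam soil–sand blend, seeds got a preemergence directed soil spray, while postemergence plants were 2 to 10 cm tall at spraying.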"}, "[2]": {"test_system": "ragweed (common ragweed, Ambrosia elatior)", "test": "Test A preemergence", "conditions": "Ambrosia artemisiifolia, pre-emergence, 240 h, 0 to 100 scale (0 no effect, 100 complete control), read-out: Plant response rating, Ragweed", "in_short": "as §1"}, "Kochia (Kochia scoparia) [3]": {"test_system": "Kochia (Kochia scoparia)", "test": "Test A preemergence", "conditions": "Bassia scoparia, pre-emergence, 240 h, 0 to 100 scale (0 no effect, 100 complete control), read-out: Plant response rating, Kochia", "in_short": "as §1"}, "[4]": {"test_system": "ryegrass, Italian (Italian ryegrass, Lolium multiflorum)", "test": "Test A preemergence", "conditions": "Lolium multiflorum, pre-emergence, 240 h, 0 to 100 scale (0 no effect, 100 complete control), read-out: Plant response rating, Ryegrass, Italian", "in_short": "as §1"}, "[5]": {"test_system": "pigweed (Amaranthus retroflexus)", "test": "Test A preemergence", "conditions": "Amaranthus retroflexus, pre-emergence, 240 h, 0 to 100 scale (0 no effect, 100 complete control), read-out: Plant response rating, Pigweed"}, "[6]": {"test_system": "giant foxtail (Setaria faberii)", "test": "Test A postemergence", "conditions": "Setaria faberi, post-emergence, 240 h, Postemergence", "in_short": "as §1"}, "[7]": {"test_system": "ragweed (common ragweed, Ambrosia elatior)", "test": "Test A postemergence", "conditions": "Ambrosia artemisiifolia, post-emergence, 240 h, Postemergence", "in_short": "as §1"}, "[8]": {"test_system": "Galium (catchweed bedstraw, Galium aparine)", "test": "Test A postemergence", "conditions": "Galium, post-emergence, 240 h, Postemergence", "in_short": "as §1"}, "[9]": {"test_system": "blackgrass (Alopecurus myosuroides)", "test": "Test A postemergence", "conditions": "Alopecurus myosuroides, post-emergence, 240 h, Postemergence", "in_short": "as §1"}, "corn (Zea mays)": {"test_system": "corn (Zea mays)", "test": "Test A postemergence", "conditions": "Zea mays, post-emergence, 240 h, Postemergence", "in_short": "as §1"}, "[10]": {"test_system": "barnyardgrass (Echinochloa crus-galli)", "test": "Test A postemergence", "conditions": "Echinochloa crus-galli, post-emergence, 240 h, Postemergence", "in_short": "as §1"}, "Kochia (Kochia scoparia) [11]": {"test_system": "Kochia (Kochia scoparia)", "test": "Test A postemergence", "conditions": "Bassia scoparia, post-emergence, 240 h, Postemergence", "in_short": "as §1"}, "[12]": {"test_system": "ryegrass, Italian (Italian ryegrass, Lolium multiflorum)", "test": "Test A postemergence", "conditions": "Lolium multiflorum, post-emergence, 240 h, Postemergence", "in_short": "as §1"}, "[13]": {"test_system": "wheat (Triticum aestivum)", "test": "Test A postemergence", "conditions": "Triticum aestivum, post-emergence, 240 h, Postemergence", "in_short": "as §1"}, "[14]": {"test_system": "pigweed (Amaranthus retroflexus)", "test": "Test A postemergence", "conditions": "Amaranthus retroflexus, post-emergence, 240 h, Postemergence", "in_short": "as §1"}}, "data": [{"smiles": "Cc1c(F)ccc([C@H]2CNC(=O)[C@@H]2C(=O)Nc2cccc(F)c2F)c1F", "note": "[Compound 1327]", "values": [{"measurement": "pest or weed control at 500 g/ha", "setting": "[1]; 500 g ai/ha, preemergence", "value": 90, "unit": "%"}, {"measurement": "pest or weed control at 125 g/ha", "setting": "[1]; Preemergence, 125 g ai/ha", "value": 70, "unit": "%"}, {"measurement": "pest or weed control at 500 g/ha", "setting": "[2]; 500 g ai/ha, preemergence", "value": 0, "unit": "%"}, {"measurement": "pest or weed control at 125 g/ha", "setting": "[2]; Preemergence, 125 g ai/ha", "value": 0, "unit": "%"}, {"measurement": "pest or weed control at 500 g/ha", "setting": "Kochia (Kochia scoparia) [3]; 500 g ai/ha, preemergence", "value": 90, "unit": "%"}, {"measurement": "pest or weed control at 125 g/ha", "setting": "Kochia (Kochia scoparia) [3]; Preemergence, 125 g ai/ha", "value": 100, "unit": "%"}, {"measurement": "pest or weed control at 500 g/ha", "setting": "[4]; 500 g ai/ha, preemergence", "value": 20, "unit": "%"}, {"measurement": "pest or weed control at 125 g/ha", "setting": "[4]; Preemergence, 125 g ai/ha", "value": 20, "unit": "%"}, {"measurement": "pest or weed control at 500 g/ha", "setting": "[5]; 500 g ai/ha, preemergence", "value": 30, "unit": "%"}, {"measurement": "pest or weed control at 125 g/ha", "setting": "[5]; Preemergence, 125 g ai/ha", "value": 0, "unit": "%"}, {"measurement": "pest or weed control at 125 g/ha", "setting": "[6]; 125 g ai/ha, visual rating about 10 d after treatment, read-out: Foxtail, Giant plant response rating (0 to 100 scale)", "value": 20, "unit": "%"}, {"measurement": "pest or weed control at 500 g/ha", "setting": "[6]; 500 g ai/ha, visual injury, 0 to 100 scale (0 no effect, 100 complete control), approx. 10 d, read-out: Plant response rating, Foxtail, Giant", "value": 70, "unit": "%"}, {"measurement": "pest or weed control at 125 g/ha", "setting": "[7]; 125 g ai/ha, visual rating about 10 d after treatment, read-out: Ragweed plant response rating (0 to 100 scale)", "value": 0, "unit": "%"}, {"measurement": "pest or weed control at 500 g/ha", "setting": "[7]; 500 g ai/ha, visual injury, 0 to 100 scale (0 no effect, 100 complete control), approx. 10 d, read-out: Plant response rating, Ragweed", "value": 20, "unit": "%"}, {"measurement": "pest or weed control at 125 g/ha", "setting": "[8]; 125 g ai/ha, visual rating about 10 d after treatment, read-out: Galium plant response rating (0 to 100 scale)", "value": 30, "unit": "%"}, {"measurement": "pest or weed control at 500 g/ha", "setting": "[8]; 500 g ai/ha, visual injury, 0 to 100 scale (0 no effect, 100 complete control), approx. 10 d, read-out: Plant response rating, Galium", "value": 50, "unit": "%"}, {"measurement": "pest or weed control at 125 g/ha", "setting": "[9]; 125 g ai/ha, visual rating about 10 d after treatment, read-out: Blackgrass plant response rating (0 to 100 scale)", "value": 0, "unit": "%"}, {"measurement": "pest or weed control at 500 g/ha", "setting": "[9]; 500 g ai/ha, visual injury, 0 to 100 scale (0 no effect, 100 complete control), approx. 10 d, read-out: Plant response rating, Blackgrass", "value": 20, "unit": "%"}, {"measurement": "plant injury at 125 g/ha", "setting": "corn (Zea mays); 125 g ai/ha, visual rating about 10 d after treatment, read-out: Corn plant response rating (0 to 100 scale)", "value": 0, "unit": "%"}, {"measurement": "Corn plant response rating (crop injury, 0 = no effect, 100 = complete kill) at 500 g/ha", "setting": "corn (Zea mays); 500 g ai/ha, visual injury, 0 to 100 scale (0 no effect, 100 complete control), approx. 10 d", "value": 0, "unit": "%"}, {"measurement": "pest or weed control at 125 g/ha", "setting": "[10]; 125 g ai/ha, visual rating about 10 d after treatment, read-out: Barnyardgrass plant response rating (0 to 100 scale, 0 no effect, 100 complete control)", "value": 90, "unit": "%"}, {"measurement": "pest or weed control at 500 g/ha", "setting": "[10]; 500 g ai/ha, visual injury, 0 to 100 scale (0 no effect, 100 complete control), approx. 10 d, read-out: Plant response rating, Barnyardgrass", "value": 90, "unit": "%"}, {"measurement": "pest or weed control at 125 g/ha", "setting": "Kochia (Kochia scoparia) [11]; 125 g ai/ha, visual rating about 10 d after treatment, read-out: Kochia plant response rating (0 to 100 scale)", "value": 0, "unit": "%"}, {"measurement": "pest or weed control at 500 g/ha", "setting": "Kochia (Kochia scoparia) [11]; 500 g ai/ha, visual injury, 0 to 100 scale (0 no effect, 100 complete control), approx. 10 d, read-out: Plant response rating, Kochia", "value": 30, "unit": "%"}, {"measurement": "pest or weed control at 125 g/ha", "setting": "[12]; 125 g ai/ha, visual rating about 10 d after treatment, read-out: Ryegrass, Italian plant response rating (0 to 100 scale)", "value": 0, "unit": "%"}, {"measurement": "pest or weed control at 500 g/ha", "setting": "[12]; 500 g ai/ha, visual injury, 0 to 100 scale (0 no effect, 100 complete control), approx. 10 d, read-out: Plant response rating, Ryegrass, Italian", "value": 40, "unit": "%"}, {"measurement": "plant injury at 125 g/ha", "setting": "[13]; 125 g ai/ha, visual rating about 10 d after treatment, read-out: Wheat plant response rating (0 to 100 scale)", "value": 0, "unit": "%"}, {"measurement": "plant injury at 500 g/ha", "setting": "[13]; 500 g ai/ha, visual injury, 0 to 100 scale (0 no effect, 100 complete control), approx. 10 d, read-out: Plant response rating, Wheat", "value": 0, "unit": "%"}, {"measurement": "pest or weed control at 125 g/ha", "setting": "[14]; 125 g ai/ha, visual rating about 10 d after treatment, read-out: Pigweed plant response rating (0 to 100 scale)", "value": 0, "unit": "%"}, {"measurement": "pest or weed control at 500 g/ha", "setting": "[14]; 500 g ai/ha, visual injury, 0 to 100 scale (0 no effect, 100 complete control), approx. 10 d, read-out: Plant response rating, Pigweed", "value": 0, "unit": "%"}]}]}
